In ChEMBL document CHEMBL5215006, “Antitumor Activity of Piceamycin by Upregulation of N-Myc Downstream-Regulated Gene 1 in Human Colorectal Cancer Cells” (J Nat Prod, 2022):
Activity calls are given as the source filed them. No cut-off for these calls is given here.

Experiments:
[1] = system: HCT-116; assay: Induction of apoptosis in human HCT-116 cells assessed as downregulation of survivin expression at 0.3 uM measured at 12 to 48 hrs by immunoblotting assay; format: functional, cell-based; conditions: time 12-48 hrs, TDE = time-dependent effect
[2] = system: SW480; assay: Cell cycle arrest in human SW480 cells assessed as accumulation at S phase at 0.7 uM incubated for 24 hrs by RNaseA/propidium iodide staining based flow cytometry (reference value: 16.7 %); format: functional
[3] = system: HCT-116; assay: Antimigratory activity against highly liver metastatic human HCT-116 cells assessed as downregulation of Snail gene expression at 0.075 to 0.3 uM incubated for 24 hrs by RT-PCR method; format: functional, cell-based; conditions: dose 0.075-0.3 µM
[4] = system: SW480; assay: Induction of apoptosis in human SW480 cells assessed as late apoptotic cells at 0.7 uM incubated for 48 hrs by Annexin V-FITC/PI staining based flow cytometry analysis (Rvb= 5.26%); format: functional
[5] = system: HCT-116; assay: Induction of apoptosis in human HCT-116 cells assessed as upregulation of cleaved caspase-9 expression at 0.3 uM measured after 48 hrs by immunoblotting assay; format: functional, cell-based
[6] = system: HCT-116; assay: Induction of apoptosis in human HCT-116 cells assessed as viable cells at 0.075 uM incubated for 48 hrs by Annexin V-FITC/PI staining based flow cytometry analysis (Rvb= 94.18%); format: functional; conditions: read-out: Activity
[7] = system: SW480; assay: Cell cycle arrest in human SW480 cells assessed as accumulation at G2/M phase at 1.4 uM incubated for 24 hrs by RNaseA/propidium iodide staining based flow cytometry (reference value: 24.74 %); format: functional
[8] = system: SW480; assay: Anti-migratory activity against human SW480 cells assessed as downregulation of Snail protein expression at 0.35 to 1.4 uM incubated for 24 hrs by immunoblotting assay; format: functional, cell-based; conditions: dose 0.35-1.4 µM
[9] = system: HCT-116; assay: Induction of apoptosis in human HCT-116 cells assessed as upregulation of cleaved PARP expression at 0.3 uM measured at 12 to 48 hrs by immunoblotting assay; format: functional, cell-based; conditions: time 12-48 hrs, TDE = time-dependent effect

For `C[C@@H]1\C=C/C=C/C=C\C=C\C=C\C(=O)C2=C(O)C(=O)C[C@@]2(C)/C=C/C=C\C=C/C(=O)NC1`, the Activity [1] was “Tde”, the Activity [2] was 15.28% and the Activity [3] was “Active”. The Activity [4] was 17.78%, the Activity [5] was “Active” and the viability at 0.075 µM [6] was 84.8%. The Activity [7] was 19.26%, the Activity [8] was “Active” and the Activity [9] was “Tde”.
